{"source": "ChEMBL document CHEMBL4130505", "about": "“4-Quinolone hybrids and their antibacterial activities” (Eur J Med Chem, 2017)", "key": {"Klebsiella pneumoniae": {"test_system": "Klebsiella pneumoniae", "test": "Antibacterial activity against Klebsiella pneumoniae by microdilution method", "format": "functional"}, "Escherichia coli [1]": {"test_system": "Escherichia coli", "test": "Antibacterial activity against Escherichia coli NCTC 10419 infected in CF mouse assessed as protection against bacterial infection administered orally at 1 and 4 hrs post infection measured after 1 week", "format": "functional, organism-based"}, "Escherichia coli [2]": {"test_system": "Escherichia coli", "test": "Potency index, ratio of ciprofloxacin EC50 to compound EC50 for antibacterial activity against Escherichia coli NCTC 10419 infected in CF mouse", "format": "functional"}, "Escherichia coli [3]": {"test_system": "Escherichia coli", "test": "Potency index, ratio of ciprofloxacin MIC to compound MIC for Escherichia coli NCTC 10419", "format": "functional"}, "Escherichia coli [4]": {"test_system": "Escherichia coli", "test": "microbe, parasite or virus in culture", "conditions": "NCTC 10419", "description": "Antibacterial activity against Escherichia coli NCTC 10419 after 18 to 20 hrs by agar dilution method"}, "[5]": {"test": "Solubility of the compound in water", "format": "physicochemical"}, "Escherichia coli [6]": {"test_system": "Escherichia coli", "test": "Antibacterial activity against Escherichia coli", "format": "functional"}, "Escherichia coli [7]": {"test_system": "Escherichia coli", "test": "Potency index, ratio of ciprofloxacin MIC to compound MIC for Escherichia coli", "format": "functional"}}}
{"molecule": "CC1=NOc2c(N3CCN(C)CC3)c(F)cc3c(=O)c(C(=O)O)cn1c23", "values": [{"measurement": "MIC", "setting": "Klebsiella pneumoniae", "value": 8, "unit": "µg/mL"}]}
{"molecule": "COc1cc(Cc2cnc(/N=C3\\C(=O)N(CN4CCN(c5cc6c(cc5F)c(=O)c(C(=O)O)cn6C5CC5)CC4)c4ccc(C)cc43)nc2N)cc(OC)c1OC", "values": [{"measurement": "EC50", "setting": "Escherichia coli [1]", "value": 0.62, "unit": "mg/kg"}, {"measurement": "Ratio EC50", "setting": "Escherichia coli [2]", "value": 2}, {"measurement": "Ratio", "setting": "Escherichia coli [3]", "value": 5.5}]}
{"molecule": "CC1=NOc2c(N3CCC(C)CC3)c(F)cc3c(=O)c(C(=O)O)cn1c23", "values": [{"measurement": "MIC", "setting": "Klebsiella pneumoniae", "value": 8, "unit": "µg/mL"}]}
{"molecule": "O=C(O)c1cn(C2CC2)c2cc(N3CCNCC3)c(F)cc2c1=O", "note": "[CIPROFLOXACIN]", "values": [{"measurement": "EC50", "setting": "Escherichia coli [1]", "value": 1.25, "unit": "mg/kg"}, {"measurement": "MIC", "setting": "Escherichia coli [4]", "value": 1.1, "unit": "nM"}]}
{"molecule": "CC1=NOc2c(N3CCc4ccccc4C3)c(F)cc3c(=O)c(C(=O)O)cn1c23", "values": [{"measurement": "MIC", "setting": "Klebsiella pneumoniae", "value": 8, "unit": "µg/mL"}]}
{"molecule": "CO/N=C1\\CCN(c2cc3c(cc2F)c(=O)c(C(=O)O)cn3C2CC2)CC1N.CS(=O)(=O)O", "note": "(stereo unspecified)", "values": [{"measurement": "solubility", "setting": "[5]", "value": 22.5, "unit": "mg/mL"}]}
{"molecule": "O=C1OCC(OCCN2CCN(c3cc4c(cc3F)c(=O)c(C(=O)O)cn4C3CC3)CC2)=C1c1ccccc1F", "values": [{"measurement": "MIC", "setting": "Escherichia coli [6]", "value": 0.11, "unit": "µg/mL"}, {"measurement": "Ratio", "setting": "Escherichia coli [7]", "value": 50}]}
